Data published in patent publication US10981908B2, “Aryl hydrocarbon receptor (AHR) modulator compounds” (PHENEX PHARMACEUTICALS AG, priority 2017, dated 2021).

Target: T1, AhR (Homo sapiens, UniProt P35869)
T1 construct: The HepG2 CYP1A1-Luc cells do express basal luciferase activity that can be increased via potent AhR agonists or decreased via potent AhR antagonists; endogenous in cells
T1 sequence (P35869 11-848): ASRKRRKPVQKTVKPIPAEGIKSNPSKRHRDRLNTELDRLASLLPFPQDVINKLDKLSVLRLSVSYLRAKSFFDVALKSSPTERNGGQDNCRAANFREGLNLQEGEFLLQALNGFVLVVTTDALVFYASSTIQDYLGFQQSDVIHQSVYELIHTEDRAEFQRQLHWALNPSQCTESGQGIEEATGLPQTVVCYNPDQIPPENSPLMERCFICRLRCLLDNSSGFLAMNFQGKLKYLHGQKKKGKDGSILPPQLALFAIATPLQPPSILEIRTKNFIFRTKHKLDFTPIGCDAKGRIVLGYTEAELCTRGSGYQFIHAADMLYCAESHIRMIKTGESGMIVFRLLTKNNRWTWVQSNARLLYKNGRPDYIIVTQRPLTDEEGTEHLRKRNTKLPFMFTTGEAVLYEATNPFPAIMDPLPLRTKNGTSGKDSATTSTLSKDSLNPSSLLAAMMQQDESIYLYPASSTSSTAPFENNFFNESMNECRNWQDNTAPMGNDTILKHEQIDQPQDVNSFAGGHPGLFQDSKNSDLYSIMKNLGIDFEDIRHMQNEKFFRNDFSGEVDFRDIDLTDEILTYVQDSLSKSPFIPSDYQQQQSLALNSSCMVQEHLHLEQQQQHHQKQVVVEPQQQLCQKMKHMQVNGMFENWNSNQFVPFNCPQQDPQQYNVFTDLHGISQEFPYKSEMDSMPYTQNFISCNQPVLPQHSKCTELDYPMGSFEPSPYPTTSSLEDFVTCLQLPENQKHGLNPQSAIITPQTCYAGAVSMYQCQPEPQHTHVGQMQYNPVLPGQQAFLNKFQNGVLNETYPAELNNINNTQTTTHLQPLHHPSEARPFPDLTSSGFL
Assay: AhR direct luciferase reporter assay in HepG2 cells (HepG2 CYP1A1-LUC)
Format: cell-based
Settings: luciferase activity after 18 hours, medium with no exogenous AhR agonist or 10 nM VAF347, read-out: AhR potency (AhR antagonistic potency, IC50 class)
From the text: AhR Direct Luciferase Reporter Assay in HepG2 Cells
A stable cell line (HepG2 CYP1A1-LUC) was used in which part of the promoter region of the human CYP1A1 gene is stably integrated into the genome of human HepG2 hepatocytes (DSZM #ACC 180) in front of a Photinus pyralis Firefly Luciferase gene. A 1210 bp fragment comprising part of the human CYP1A1 promoter was isolated via SacI and BgIII restriction digestion from Lightswitch Clone S714555 (SwitchGearGenomics) and inserted between the SacI and BgIII sites in pGL4.30 (Promega #E8481) in front of the Firefly Luciferase gene. The resulting vector was linearized with NotI, transfected into HepG2 cells (DSMZ #ACC 180) and stably transfected clones selected with 250 μg/ml Hygromycin B. After repetitive rounds of subcloning and testing for robustly regulated luciferase activity after AhR agonist stimulation, a stable clonal HepG2 CYP1A1-Luc cell line was selected.
The HepG2 CYP1A1-Luc cells do express basal luciferase activity that can be increased via potent AhR agonists or decreased via potent AhR antagonists, added to the growth medium of the cells.
In typical reporter assays performed with this cell line, cells are grown in 96-well plates and AhR modulators are titrated into the growth medium in serial dilutions in RPMI-1640 Medium (Sigma #R7509) supplemented with 8,6% fetal calf serum (Sigma #F7524) and containing either no exogenous AhR agonist or 10 nM of the potent AhR agonist VAF347 (Calbiochem #182690). Cells are further cultivated for 18 hours and luciferase activities are determined from extracts of cells in buffers containing D-Luciferine and ATvP using a LUMIstar Optima microplate Luminometer from BMG Labtech.

Row | IC50 [µM] | Compound
1 | < 0.1 | Cn1ncnc1C(=O)Nc1ccc2cc(-c3cc(F)ccc3C(F)(F)F)[nH]c2n1 [Example 1/12, N-(2-(5-Fluoro-2-(trifluoromethyl)phenyl)-1H-pyrrolo[2,3-b]pyridin-6-yl)-1-methyl-1H-1,2,4-triazole-5-carboxamide]
2 | < 0.1 | Cn1ncnc1C(=O)Nc1ccc2cc(-c3cccc4ccccc34)[nH]c2n1 [Example 1/13, 1-Methyl-N-(2-(naphthalen-1-yl)-1H-pyrrolo[2,3-b]pyridin-6-yl)-1H-1,2,4-triazole-5-carboxamide]
3 | < 0.1 | Cn1ncnc1C(=O)Nc1ccc2cc(-c3ccc(F)cc3C(F)(F)F)[nH]c2n1 [Example 1/14, N-(2-(4-Fluoro-2-(trifluoromethyl)phenyl)-1H-pyrrolo[2,3-b]pyridin-6-yl)-1-methyl-1H-1,2,4-triazole-5-carboxamide]
4 | < 0.1 | Cn1ncnc1C(=O)Nc1ccc2cc(-c3ccccc3C(F)F)[nH]c2n1 [Example 1/15, N-(2-(2-(Difluoromethyl)phenyl)-1H-pyrrolo[2,3-b]pyridin-6-yl)-1-methyl-1H-1,2,4-triazole-5-carboxamide]
5 | < 0.1 | Cn1ncnc1C(=O)Nc1ccc2cc(-c3cccc4c3CCC4)[nH]c2n1 [Example 1/16, N-(2-(2,3-Dihydro-1H-inden-4-yl)-1H-pyrrolo[2,3-b]pyridin-6-yl)-1-methyl-1H-1,2,4-triazole-5-carboxamide]
6 | > 1 | Cn1ncnc1C(=O)Nc1ccc2cc(-c3ncccc3C(F)(F)F)[nH]c2n1 [Example 1/17, 1-Methyl-N-(2-(3-(trifluoromethyl)pyridin-2-yl)-1H-pyrrolo[2,3-b]pyridin-6-yl)-1H-1,2,4-triazole-5-carboxamide]
7 | 0.1 to 1 | COc1ccccc1-c1cc2ccc(NC(=O)c3ncnn3C)nc2[nH]1 [Example 1/18, N-(2-(2-Methoxyphenyl)-1H-pyrrolo[2,3-b]pyridin-6-yl)-1-methyl-11H-1,2,4-triazole-5-carboxamide]
8 | 0.1 to 1 | O=C(Nc1ccc2cc(-c3ccccc3C(F)(F)F)[nH]c2n1)c1cc2ccoc2cn1 [Example 1/19, N-(2-(2-(Trifluoromethyl)phenyl)-1H-pyrrolo[2,3-b]pyridin-6-yl)furo[2,3-c]pyridine-5-carboxamide]
9 | < 0.1 | Cc1nonc1C(=O)Nc1ccc2cc(-c3ccccc3C(F)(F)F)[nH]c2n1 [Example 1/20, 4-Methyl-N-(2-(2-(trifluoromethyl)phenyl)-1H-pyrrolo[2,3-b]pyridin-6-yl)-1,2,5-oxadiazole-3-carboxamide]
10 | 0.1 to 1 | Cn1cnnc1C(=O)Nc1ccc2cc(-c3ccccc3C(F)(F)F)[nH]c2n1 [Example 1/21, 4-Methyl-N-(2-(2-(trifluoromethyl)phenyl)-1H-pyrrolo[2,3-b]pyridin-6-yl)-4H-1,2,4-triazole-3-carboxamide]
11 | < 0.1 | O=C(Nc1ccc2cc(-c3ccccc3C(F)(F)F)[nH]c2n1)c1ncc2ccccn12 [Example 1/22, N-(2-(2-(trifluoromethyl)phenyl)-1H-pyrrolo[2,3-b]pyridin-6-yl)imidazo[1,5-a]pyridine-3-carboxamide]
12 | > 1 | Cn1ncnc1C(=O)Nc1ccc2cc(-c3ccccc3S(C)(=O)=O)[nH]c2n1 [Example 1/23, 1-Methyl-N-(2-(2-(methylsulfonyl)phenyl)-1H-pyrrolo[2,3-b]pyridin-6-yl)-1H-1,2,4-triazole-5-carboxamide]
13 | < 0.1 | Cn1ncnc1C(=O)Nc1ccc2cc(-c3ccc(C(F)F)cc3)[nH]c2n1 [Example 1/25, N-(2-(4-(Difluoromethyl)phenyl)-1H-pyrrolo[2,3-b]pyridin-6-yl)-1-methyl-1H-1,2,4-triazole-5-carboxamide]
14 | < 0.1 | Cn1ncnc1C(=O)Nc1ccc2cc(-c3cc(Cl)ccc3C(F)(F)F)[nH]c2n1 [Example 1/26, N-(2-(5-Chloro-2-(trifluoromethyl)phenyl)-1H-pyrrolo[2,3-b]pyridin-6-yl)-1-methyl-11H-1,2,4-triazole-5-carboxamide]
15 | < 0.1 | Cn1ncnc1C(=O)Nc1ccc2cc(-c3cc(C4CC4)ccc3C(F)(F)F)[nH]c2n1 [Example 1/27, N-(2-(5-Cyclopropyl-2-(trifluoromethyl)phenyl)-1H-pyrrolo[2,3-b]pyridin-6-yl)-1-methyl-1H-1,2,4-triazole-5-carboxamide]
16 | < 0.1 | Cn1ncnc1C(=O)Nc1ccc2cc(-c3cc(F)c(F)cc3C(F)F)[nH]c2n1 [Example 1/28, N-(2-(2-(Difluoromethyl)-4,5-difluorophenyl)-1H-pyrrolo[2,3-b]pyridin-6-yl)-1-methyl-1H-1,2,4-triazole-5-carboxamide]
17 | < 0.1 | CCc1ccc(C(F)(F)F)c(-c2cc3ccc(NC(=O)c4ncnn4C)nc3[nH]2)c1 [Example 1/29, N-(2-(5-Ethyl-2-(trifluoromethyl)phenyl)-1H-pyrrolo[2,3-b]pyridin-6-yl)-1-methyl-1H-1,2,4-triazole-5-carboxamide]
18 | < 0.1 | Cn1ncnc1C(=O)Nc1ccc2cc(-c3cc(C(F)(F)F)ccc3C(F)(F)F)[nH]c2n1 [Example 1/30, N-(2-(2,5-Bis(trifluoromethyl)phenyl)-1H-pyrrolo[2,3-b]pyridin-6-yl)-1-methyl-1H-1,2,4-triazole-5-carboxamide]
19 | 0.1 to 1 | Cc1cc2cc(-c3ccccc3C(F)(F)F)[nH]c2nc1NC(=O)c1ncnn1C [Example 1/31, 1-Methyl-N-(5-methyl-2-(2-(trifluoromethyl)phenyl)-1H-pyrrolo[2,3-b]pyridin-6-yl)-1H-1,2,4-triazole-5-carboxamide]
20 | < 0.1 | Cn1ncnc1C(=O)Nc1ccc2cc(-c3ccoc3C(F)F)[nH]c2n1 [Example 1/32, N-(2-(2-(Difluoromethyl)furan-3-yl)-1H-pyrrolo[2,3-b]pyridin-6-yl)-1-methyl-1H-1,2,4-triazole-5-carboxamide]
21 | < 0.1 | Cc1ccc(C(F)(F)F)c(-c2cc3ccc(NC(=O)c4ncnn4C)nc3[nH]2)c1 [Example 1/33, 1-Methyl-N-(2-(5-methyl-2-(trifluoromethyl)phenyl)-1H-pyrrolo[2,3-b]pyridin-6-yl)-1H-1,2,4-triazole-5-carboxamide]
22 | < 0.1 | Cn1ncnc1C(=O)Nc1ccc2cc(-c3cc(Cl)ccc3C(F)F)[nH]c2n1 [Example 1/34, N-(2-(5-Chloro-2-(difluoromethyl)phenyl)-1H-pyrrolo[2,3-b]pyridin-6-yl)-1-methyl-1H-1,2,4-triazole-5-carboxamide]
23 | < 0.1 | Cc1ccc(C(F)F)c(-c2cc3ccc(NC(=O)c4ncnn4C)nc3[nH]2)c1 [Example 1/35, N-(2-(2-(Difluoromethyl)-5-methylphenyl)-1H-pyrrolo[2,3-b]pyridin-6-yl)-1-methyl-1H-1,2,4-triazole-5-carboxamide]
24 | 0.1 to 1 | Cn1nc(C(N)=O)cc1C(=O)Nc1ccc2cc(-c3ccccc3C(F)(F)F)[nH]c2n1 [Example 2, 1-Methyl-n^5-(2-(2-(trifluoromethyl)phenyl)-1H-pyrrolo[2,3-b]pyridin-6-yl)-1H-pyrazole-3,5-dicarboxamide]
25 | 0.1 to 1 | Cn1ncnc1C(=O)Nc1ccc2cc(-c3ccccc3C(F)(F)F)n(C)c2n1 [Example 3, 1-Methyl-N-(1-methyl-2-(2-(trifluoromethyl)phenyl)-1H-pyrrolo[2,3-b]pyridin-6-yl)-1H-1,2,4-triazole-5-carboxamide]
26 | < 0.1 | Cn1ncnc1C(=O)Nc1ccc2cc(-c3ccccc3C3CC3)[nH]c2n1 [Example 4, N-(2-(2-Cyclopropylphenyl)-1H-pyrrolo[2,3-b]pyridin-6-yl)-1-methyl-1H-1,2,4-triazole-5-carboxamide]
